We go through 18 compounds from patent US11667643B2, “RIP1K inhibitors” (priority 2020, dated 2023).

Test [1] concerns U937 cells. Nature of the test: U937 cell necroptosis assay (TNFa + zVAD, CellTiter-Glo recovery), functional human RIP1 assay. It is filed as cell-based. Particulars: Homo sapiens, U-937, 18 h, read-out: U937 Zvad TNF CTG Recovery, U937, TNFa + zVAD (IC50), U937 cells, zVAD-fmk, TNFa 2 ng/mL, 18 hours, CellTiter-Glo. The method, then:
(§1) In this example, U937 and L929 cells were exposed to compounds of the present disclosure and a cell necroptosis assay was conducted to evaluate compound activity in functional human RIP1 and murine RIP1 assays.
(§2) U937 and L929 cells were obtained from the American Type Culture Collection (Manassa, Va., USA). Both cells were maintained in logarithmic growth phase in complete RPMI 1640 media (Sigma, ST Louis, Mo., USA) supplemented with 10% fetal bovine serum (Sigma, ST Louis, Mo., USA) at 37° C. with 5% CO2. For necroptosis assay, L929 cells were plated for 18 h in 100 μL/well medium at 10K cells/well in Costar 96-well black clear-bottom plates (Fisher Scientific, Hampton, N.H., USA); U937 cells were plated on the day of the assay in 50 μL/well medium containing 60 uM zVAD-fmk (Lonza, Basel, Switzerland) at 50K cells/well. Medium from L929 cells were removed from the 96-well plates and replaced with 50 μL/well new medium containing 40 uM zVAD-fmk. Each compound of the present disclosure evaluated in this example was serially diluted in DMSO from 2.5 mM in 4-fold dilutions, and then diluted 1:125 in complete medium. 50 μL/well 2× of the compound was then added to the cells in the plates. The cells were pre-incubated with the compound for 1 hour at 37° C. with 5% CO2 and before addition of 10 μL/well 11×TNFa (Peprotech, Rocky Hill, N.J., USA) to give a final concentration of 2 ng/mL for TNFa. The relative amount of necroptosis cells was determined by luminescent using a Wallac Victor2 Luminometer (PerkinElmer, Waltham, Mass., USA) and a CellTiter-Glo® Luminescent Cell Viability Reagent Assay (Promega, Madison, Wis., USA) added per manufacturer instructions after 18 hours of TNFa stimulation at 37° C. with 5% CO2. This example establishes that embodiments of the compounds described herein have unexpectedly potent activity against human RIP1 and murine RIP1, which allows their assessment in in vivo mouse models of disease.

The test system of test [2] is L929 cells. The experiment in a line: L929 cell necroptosis assay (TNFa + zVAD, CellTiter-Glo recovery), functional murine RIP1 assay. It is filed as cell-based. Particulars: Mus musculus, L929, 18 h, read-out: L929-CTG-recovery, L929, TNFa + zVAD (IC50), L929 cells, zVAD-fmk, TNFa 2 ng/mL, 18 hours, CellTiter-Glo. The method, then: as §1, §2
Background: Cellular ATP, detected with luciferase, serves as a proxy for viable cell number.

The target in test [3] is RIPK1 (Homo sapiens (Human), UniProt Q13546). The experiment in a line: biochemical. It is filed as biochemical. On the procedure:
In this example, compounds of the disclosure were evaluated using a biochemical assay using the ADP-Glo™ technology.
ADP-Glo™ (Promega, Madison, Wis., USA) reagents were thawed at ambient temperature. Kinase Detection Reagent was prepared by mixing kinase detection buffer with the lyophilized kinase detection substrate.
A […] stock volume of 5× Reaction Kinase Buffer was made by mixing 1000 μl of 1M MgCl2, 500 μl of 1M Tris-HCL pH7.4, 0.5 mg/ml (25 mg) of BSA, and 3475 μl of distilled H2O. A 3 ml 2× working stock volume of Reaction Kinase Buffer was made containing a final concentration of 100 μM DTT and 4 mM MnCl2.
Components of RIPK1 enzyme (Rigel Pharmaceuticals, South San Francisco, Calif., USA) were thawed on ice. Diluted RIPK1 was prepared in 1× Kinase Reaction Buffer (diluted from 2× buffer) to 31 ng/well.
1.0 ul of diluted compound was added to a 384 well plate in duplicate. […] The final reaction volume was 5.0 μl. The plate was quickly centrifuged and the reaction was incubated at 30° C. for 30 minutes. Adding 5 μl of ADP-Glo™ terminated the reaction. The plate was quickly centrifuged and the reaction was incubated at room temperature for 40 minutes. Kinase Detection Reagent was then added and incubated at room temperature for 30 minutes. The relative light unit (RLU) of kinase reaction was determined by luminescent (Luminescence 0.1 s) using a Wallac Victor2 Luminometer (PerkinElmer, Waltham, Mass., USA).

[4] abbreviates: RIPK1 enzyme 31 ng/well, 30° C. for 30 minutes, luminescence, read-out: RIPK1 ADP-Glo Kinase (IC50).

The structures appear in SMILES notation. Like-named read-outs stand apart in the source and are kept apart here.

Chain of RIPK1 (Q13546 whole entry, species assumed): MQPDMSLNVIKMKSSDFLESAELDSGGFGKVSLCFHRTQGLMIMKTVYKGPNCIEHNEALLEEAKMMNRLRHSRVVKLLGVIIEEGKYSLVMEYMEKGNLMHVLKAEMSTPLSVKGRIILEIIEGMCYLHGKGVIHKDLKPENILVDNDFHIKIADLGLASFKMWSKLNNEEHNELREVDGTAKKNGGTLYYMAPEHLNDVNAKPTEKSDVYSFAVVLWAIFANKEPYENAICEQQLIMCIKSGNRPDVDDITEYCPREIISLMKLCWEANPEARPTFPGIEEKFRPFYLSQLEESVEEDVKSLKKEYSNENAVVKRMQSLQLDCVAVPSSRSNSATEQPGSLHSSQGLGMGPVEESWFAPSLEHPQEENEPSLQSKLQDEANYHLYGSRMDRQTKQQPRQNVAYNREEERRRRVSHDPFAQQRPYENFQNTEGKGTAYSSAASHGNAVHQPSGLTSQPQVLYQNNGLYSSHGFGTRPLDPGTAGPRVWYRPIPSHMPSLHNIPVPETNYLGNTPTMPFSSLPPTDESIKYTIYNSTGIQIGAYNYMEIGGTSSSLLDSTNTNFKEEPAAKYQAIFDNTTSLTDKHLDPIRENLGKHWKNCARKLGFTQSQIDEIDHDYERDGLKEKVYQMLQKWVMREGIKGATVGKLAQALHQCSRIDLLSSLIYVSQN

Turning to `O=C(NC1CCc2ccc(CN3CCN(c4ccncc4)CC3)cc2-n2ccnc21)c1n[nH]c(Cc2ccccc2)n1` (racemic) [Compound I-39, (±)-5-Benzyl-N-(9-((4-(pyridin-4-yl)piperazin-1-yl)methyl)-5,6-dihydro-4H-benzo[f]imidazo[1,2-a]azepin-4-yl)-1H-1,2,4-triazole-3-carboxamide], the IC50 came out at 1.38 µM in test [1], 50.9 µM in test [2] and 1.46 µM in test [3] (setting [4]).

Turning to `O=C(N[C@H]1CSc2ccccc2-n2nnnc21)c1n[nH]c(Cc2ccc(F)cc2)n1` [Compound I-30, (R)—N-(4,5-Dihydrobenzo[&]tetrazolo[1,5-d][1,4]thiazepin-4-yl)-5-(4-fluorobenzyl)-1H-1,2,4-triazole-3-carboxamide], the IC50 turned out to be 0.0679 µM in test [1], 10000 µM in test [2] and 0.0186 µM in test [3] (setting [4]).

Turning to `O=C(NC1CCc2ccccc2-n2c1nc(Cl)c2Cl)c1ncn(Cc2c(Cl)cccc2Cl)n1` (racemic) [Compound I-73, (±)-N-(1,2-Dichloro-5,6-dihydro-4H-benzo[f]imidazo[1,2-a]azepin-4-yl)-1-(2,6-dichlorobenzyl)-1H-1,2,4-triazole-3-carboxamide], the IC50 in test [1] stood at 0.903 µM; in test [2], 10000 µM; in test [3] (setting [4]), 0.0924 µM.

Consider `O=C(N[C@H]1CSc2ccccc2-n2c1noc2=O)c1cc(Cc2ccccc2)on1` [Compound I-28, 5-Benzyl-N-((4R)-1-oxo-4,5-dihydro-1H-benzo[b][1,2,4]oxadiazolo[4,3-d][1,4]thiazepin-4-yl)isoxazole-3-carboxamide], for which the IC50 in test [1] was 0.0165 µM; in test [2], 10.7 µM; in test [3] (setting [4]) it was 0.0679 µM.

Take `O=C(N[C@H]1COc2ccccc2-n2nnnc21)c1cc(Cc2ccccc2)on1` [Compound I-8, (R)-5-Benzyl-N-(4,5-dihydrobenzo[6]tetrazolo[1,5-d][1,4]oxazepin-4-yl)isoxazole-3-carboxamide]: the figures for the IC50 in test [1], in test [2] and in test [3] (setting [4]) were 4.45 µM, 10000 µM and 0.521 µM, respectively.

`O=C(N[C@H]1COc2ccccc2-n2c1noc2=O)c1ncn(Cc2c(Cl)cccc2Cl)n1` [Compound I-42, 1-(2,6-Dichlorobenzyl)-N-((4R)-1-oxo-4,5-dihydro-1H-benzo[&][1,2,4]oxadiazolo[4,3-d][1,4]oxazepin-4-yl)-1H-1,2,4-triazole-3-carboxamide]: the IC50 in test [1] was found to be 0.041 µM; in test [2], 10000 µM; in test [3] (setting [4]), 0.0263 µM.

On to `O=C(N[C@H]1COc2ccc(N3CC4(CCOCC4)C3)cc2-n2ccnc21)c1n[nH]c(Cc2ccccc2)n1` [Compound I-87, (R)—N-(9-(7-Oxa-2-azaspiro[3.5]nonan-2-yl)-4,5-dihydrobenzo[b]imidazo[1,2-d][1,4]oxazepin-4-yl)-5-benzyl-1H-1,2,4-triazole-3-carboxamide], for which the IC50 in test [1] is 0.0156 µM; in test [2] it was 10000 µM; in test [3] it was 0.0682 µM.

On to `O=C(NC1CCc2ccc(N3CCC4(CCOCC4)CC3)cc2-n2ccnc21)c1n[nH]c(Cc2ccccc2)n1` (racemic) [Compound I-64, (±)-N-(9-(3-Oxa-9-azaspiro[5.5]undecan-9-yl)-5,6-dihydro-4H-benzo[f]imidazo[1,2-a]azepin-4-yl)-5-benzyl-1H-1,2,4-triazole-3-carboxamide], for which the IC50 in test [1] is 0.0077 µM; in test [2], 4.06 µM; in test [3], 0.124 µM.

Regarding `O=C(NC1CCc2ccc(N3CCC4(CCOCC4)CC3)cc2-n2c1noc2=O)c1n[nH]c(Cc2ccccc2)n1` (racemic) [Compound I-65, (±)-5-Benzyl-N-(1-oxo-9-(3-oxa-9-azaspiro[5.5]undecan-9-yl)-5,6-dihydro-1H,4H-benzo[f][1,2,4]oxadiazolo[4,3-a]azepin-4-yl)-1H-1,2,4-triazole-3-carboxamide], the IC50 came out at 0.0211 µM in test [1], 3.26 µM in test [2] and 0.0678 µM in test [3] (setting [4]).

As for `O=C(N[C@H]1COc2ccccc2-n2c1noc2=O)c1cc(Cc2ccccc2)on1` [Compound I-43, 5-benzyl-N-((4R)-1-oxo-4,5-dihydro-1H-benzo[b][1,2,4]oxadiazolo[4,3-d][1,4]oxazepin-4-yl)isoxazole-3-carboxamide], the IC50 was 0.205 µM in test [1], 10000 µM in test [2] and 0.11 µM in test [3] (setting [4]).

For `O=C(NC1CCc2ccccc2-n2c1noc2=O)c1cc(Oc2ccccc2)ccn1` (racemic) [Compound I-52, (±)-N-(1-Oxo-5,6-dihydro-1H,4H-benzo[f][1,2,4]oxadiazolo[4,3-a]azepin-4-yl)-4-phenoxypicolinamide], the IC50 in test [1] came to 0.0647 µM; in test [2], 20.8 µM; in test [3] (setting [4]), 0.0325 µM.

`O=C(NC1CCc2ccccc2-n2c1noc2=O)c1n[nH]c(Cc2ccccc2)n1` (racemic) [Compound I-48, (±)-5-Benzyl-N-(1-oxo-5,6-dihydro-1H,4H-benzo[f][1,2,4]oxadiazolo[4,3-a]azepin-4-yl)-1H-1,2,4-triazole-3-carboxamide]: the IC50 in test [1] was found to be 0.0408 µM; in test [2], 10000 µM; in test [3] (setting [4]), 0.0534 µM.

As for `O=C(NC1CCc2ccccc2-n2cnnc21)c1cc(Oc2ccccc2)ccn1` (racemic) [Compound I-59, (±)-N-(5,6-Dihydro-4H-benzo[f][1,2,4]triazolo[4,3-a]azepin-4-yl)-4-phenoxypicolinamide], the IC50 was determined as 0.829 µM in test [1], 10000 µM in test [2] and 0.118 µM in test [3] (setting [4]).

In the case of `O=C(N[C@H]1COc2ccccc2-n2c1noc2=O)c1cc(Oc2ccccc2)ccn1` [Compound I-53, N-((4R)-1-Oxo-4,5-dihydro-1H-benzo[6][1,2,4]oxadiazolo[4,3-d][1,4]oxazepin-4-yl)-4-phenoxypicolinamide], the IC50 in test [1] was determined as 0.0462 µM; in test [2] it was 30.7 µM; in test [3] (setting [4]) it was 0.0204 µM.

`O=C(NC1CCc2ccccc2-n2ccnc21)c1ncn(Cc2ccccc2F)n1` (racemic) [Compound I-14, (±)-N-(5,6-Dihydro-4H-benzo[f]imidazo[1,2-a]azepin-4-yl)-1-(2-fluorobenzyl)-1H-1,2,4-triazole-3-carboxamide]: the IC50 came out at 0.0066 µM in test [1], 2.34 µM in test [2] and 0.0166 µM in test [3] (setting [4]).

Turning to `O=C(NC1CSc2cccn2-n2ccnc21)c1n[nH]c(Cc2ccccc2)n1` (racemic) [Compound I-45, (±)-5-Benzyl-N-(4,5-dihydroimidazo[1,2-d]pyrrolo[2,1-b][1,3,4]thiadiazepin-4-yl)-1H-1,2,4-triazole-3-carboxamide], the IC50 in test [1] turned out to be 0.0364 µM; in test [2], 10.5 µM; in test [3] (setting [4]), 0.0312 µM.

Take `O=C(N[C@H]1CSc2ccccc2-n2c1noc2=O)c1ncn(Cc2ccc(F)cc2)n1` [Compound I-32, 1-(4-Fluorobenzyl)-N-((4R)-1-oxo-4,5-dihydro-1H-benzo[b][1,2,4]oxadiazolo[4,3-d][1,4]thiazepin-4-yl)-1H-1,2,4-triazole-3-carboxamide]: the IC50 in test [1] was determined as 0.0016 µM; in test [2], 0.674 µM; in test [3] (setting [4]), 0.0133 µM.

Regarding `O=C(NC1CCc2ccccc2-n2c(Cl)cnc21)c1ncn(Cc2c(Cl)cccc2Cl)n1` (racemic) [Compound I-74, (±)-N-(1-Chloro-5,6-dihydro-4H-benzo[f]imidazo[1,2-a]azepin-4-yl)-1-(2,6-dichlorobenzyl)-1H-1,2,4-triazole-3-carboxamide], the values for the IC50 in test [1], in test [2] and in test [3] (setting [4]) were 0.0898 µM, 8.62 µM and 0.054 µM, respectively.
